The target of experiment [1] is T1, Serotonin 3 (5-HT3) receptor (Rattus norvegicus) (UniProt P35563+Q9JJ16). Briefly: Tested for 5-HT 3 receptor antagonist potency by ability to inhibit the reflex bradycardia, the Bezold-Jarisch reflex in the rat. The format is functional.
Experiment [2] has as its target 5-hydroxytryptamine receptor 4 (Cavia porcellus) (UniProt O70528). Nature of the experiment: Relative ability to increase cholinergically mediated contractions in isolated ileum of guinea pig. The format is functional, tissue-based.
For experiment [3], the target named is 5-hydroxytryptamine receptor 4 (Rattus norvegicus) (UniProt Q62758). Nature of the experiment: Stimulatory activity of intragastric pressure was tested in the rat. The format is functional.
Chain of 5-hydroxytryptamine receptor 4 (Rattus norvegicus) (Q62758 whole entry): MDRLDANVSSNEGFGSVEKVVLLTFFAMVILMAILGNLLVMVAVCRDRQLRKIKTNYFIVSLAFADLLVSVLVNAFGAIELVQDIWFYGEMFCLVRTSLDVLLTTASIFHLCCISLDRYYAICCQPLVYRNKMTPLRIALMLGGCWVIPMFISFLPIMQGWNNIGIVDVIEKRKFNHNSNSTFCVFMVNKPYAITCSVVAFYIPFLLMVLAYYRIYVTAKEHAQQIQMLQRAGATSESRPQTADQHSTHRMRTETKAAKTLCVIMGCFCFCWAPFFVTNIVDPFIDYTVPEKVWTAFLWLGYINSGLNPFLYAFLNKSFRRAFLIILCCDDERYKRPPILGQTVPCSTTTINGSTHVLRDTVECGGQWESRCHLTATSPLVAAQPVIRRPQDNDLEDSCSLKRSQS
The species entered for experiment [4] is Canis familiaris. Nature of the experiment: Tested against rhythmic contractile activity in a Heidenhain pouch dog preparation. The format is functional, Canis lupus familiaris.
Experiment [5] concerns the target T1, Serotonin 3 (5-HT3) receptor (Rattus norvegicus). Briefly: Compound was tested for its 5-HT 3 receptor antagonist potency by their ability to inhibit the reflex bradycardia, the Bezold-Jarisch reflex in the rat. It is filed as functional.

The values that follow come from ChEMBL document CHEMBL1126614, “Substituted benzamides with conformationally restricted side chains. 5. Azabicyclo[x.y.z] derivatives as 5-HT4 receptor agonists and gastric motility stimulants” (1993).

What is called EC20 is the concentration needed for an effect of 20%. As a reminder, the ED50 is the midpoint of the dose-response relation.

Values after ≈ are worked out from the molar mass of the structure shown.

Chain of 5-hydroxytryptamine receptor 4 (Cavia porcellus) (O70528 whole entry): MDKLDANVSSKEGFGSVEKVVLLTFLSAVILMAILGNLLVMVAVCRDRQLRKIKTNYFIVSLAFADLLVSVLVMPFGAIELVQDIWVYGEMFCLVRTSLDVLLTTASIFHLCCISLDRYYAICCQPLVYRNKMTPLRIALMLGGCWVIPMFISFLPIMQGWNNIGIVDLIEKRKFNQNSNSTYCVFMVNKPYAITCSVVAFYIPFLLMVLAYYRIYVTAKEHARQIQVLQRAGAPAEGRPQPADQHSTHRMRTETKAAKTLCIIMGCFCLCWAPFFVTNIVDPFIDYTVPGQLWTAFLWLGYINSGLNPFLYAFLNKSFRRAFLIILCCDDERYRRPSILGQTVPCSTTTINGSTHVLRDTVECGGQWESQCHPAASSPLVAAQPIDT

In the case of `COc1cc(N)c(Cl)cc1C(=O)NC1CCN2CCCC1C2` (single isomer, unassigned; (-)), the ID50 in experiment [1] was 0.0039 mg/kg. Also, the EC20 in experiment [2] was 0.032 µg/mL (≈ 0.0988 µM).
`CCN(CC)CCNC(=O)c1cc(Cl)c(N)cc1OC` [METOCLOPRAMIDE] yielded an ID50 in experiment [1] of 0.5 mg/kg. Further, the 20% effect concentration (EC20) in experiment [2] stood at 0.12 µg/mL (≈ 0.4 µM). Further, in experiment [3], the ED50 was determined as 1 mg/kg. Besides, the LAD in experiment [4] amounted to 0.25 mg/kg.
Consider `COc1cc(N)c(Cl)cc1C(=O)NC1CN2CCCC1C2` (stereo in doubt; exo) [listing 1 of 2 here], for which the LAD in experiment [4] came to 0.05 mg/kg.
On the same count and under the same terms, for `COc1cc(N)c(Cl)cc1C(=O)N[C@H]1CCN2CCC[C@@H]1C2` (relative stereo) [listing 1 of 2 here] the value was 0.05 mg/kg; for `COc1cc(N)c(Cl)cc1C(=O)NC1C2CC3CCN(C2)CC1C3` (stereo in doubt; exo) [listing 1 of 2 here], 0.05 mg/kg.
As for `COc1cc(N)c(Cl)cc1C(=O)NC1CC2CCCN(C2)C1` (configuration not stated), the ID50 in experiment [1] came to 0.0055 mg/kg. The EC20 in experiment [2] was determined as 0.002 µg/mL (≈ 0.00618 µM). This compound gave an ED50 in experiment [3] of over 1 mg/kg. The compound further gave an LAD in experiment [4] of over 0.1 mg/kg.
In turn, `COc1cc(N)c(Cl)cc1C(=O)N[C@H]1CCN2CCC[C@@H]1C2` [listing 1 of 2 here] registered an ID50 in experiment [1] of 0.0042 mg/kg. Also, the 20% effect concentration (EC20) in experiment [2] turned out to be 0.022 µg/mL (≈ 0.0679 µM).
In turn, `COc1cc(N)c(Cl)cc1C(=O)NC1CCN2CCOC1C2` (single isomer, unassigned; (-)) displayed an ID50 in experiment [1] of 0.032 mg/kg. Further, the ED50 in experiment [3] was 0.1 mg/kg.
`COc1cc(N)c(Cl)cc1C(=O)NC1CCNCC12CCC2C` (configuration not stated) showed a concentration for an effect of 20% (EC20) in experiment [2] of 0.018 µg/mL (≈ 0.0533 µM). Besides, in experiment [4], the LAD worked out at 0.05 mg/kg.
`COc1cc(N)c(Cl)cc1C(=O)NC1CCN2CCOC1C2` (single isomer, unassigned; (+)) [listing 1 of 2 here]: the LAD in experiment [4] was 0.01 mg/kg.
Turning to `COc1cc(N)c(Cl)cc1C(=O)NC12CCC(CC1)NC2`, in experiment [5], the ID50 stood at 0.086 mg/kg. The compound also returned an LAD in experiment [4] of 0.01 mg/kg.
`COc1cc(N)c(Cl)cc1C(=O)N[C@H]1CCN2CCC[C@@H]1C2` (relative stereo) [listing 2 of 2 here] returned an ID50 in experiment [1] of over 0.1 mg/kg. The same compound yielded an EC20 in experiment [2] of 0.087 µg/mL (≈ 0.269 µM).
The compound `COc1cc(N)c(Cl)cc1C(=O)NC1CCN2CCCC1C2` (stereo in doubt; 5d) [RENZAPRIDE] had an LAD in experiment [4] of 0.005 mg/kg.
Take `COc1cc(N)c(Cl)cc1C(=O)NC1CCNC(C)C12CCC2C` (configuration not stated): the concentration for an effect of 20% (EC20) in experiment [2] was determined as 0.056 µg/mL (≈ 0.159 µM). Moreover, in experiment [4], the LAD worked out at 0.05 mg/kg.
The compound `COc1cc(N)c(Cl)cc1C(=O)N[C@H]1CCN2CCC[C@@H]1C2` [listing 2 of 2 here] returned an LAD in experiment [4] of 0.01 mg/kg.
The compound `COc1cc(N)c(Cl)cc1C(=O)NC1CN2CCCC1C2` (stereo in doubt; endo) [listing 1 of 2 here] showed an LAD in experiment [4] of 0.01 mg/kg.
The compound `COc1cc(N)c(Cl)cc1C(=O)NC1C2CC3CCN(C2)CC1C3` (stereo in doubt; endo) [listing 1 of 2 here] came in with an LAD in experiment [4] of 0.01 mg/kg.
Compound `COc1cc(N)c(Cl)cc1C(=O)NC1CCN2CCCC1C2` (stereo in doubt) registered an ID50 in experiment [1] of 0.0033 mg/kg. Further, the 20% effect level in experiment [2] (EC20) was put at 0.007 µg/mL (≈ 0.0216 µM). This compound also showed an ED50 in experiment [3] of 0.1 mg/kg.
For `COc1cc(N)c(Cl)cc1C(=O)NC1CN2CCCC1C2` (stereo in doubt; exo) [listing 2 of 2 here], the ID50 in experiment [1] was determined as 0.045 mg/kg. In experiment [2], the 20% effect level (EC20) was put at 0.047 µg/mL (≈ 0.152 µM).
In experiment [1], `COc1cc(N)c(Cl)cc1C(=O)NC1C2CC3CCN(C2)CC1C3` (stereo in doubt; endo) [listing 2 of 2 here] yielded an ID50 of 0.0034 mg/kg.
In experiment [4], `COc1cc(N)c(Cl)cc1C(=O)NC1CCN2CCCC1C2` (stereo in doubt) [RENZAPRIDE] registered an LAD of 0.01 mg/kg.
As to `COc1cc(N)c(Cl)cc1C(=O)NC1CC(C)NCC12CCC2` (configuration not stated), the concentration for an effect of 20% (EC20) in experiment [2] turned out to be 0.15 µg/mL (≈ 0.444 µM). Also, the LAD in experiment [4] is 0.25 mg/kg.
`COc1cc(N)c(Cl)cc1C(=O)NC1CN2CCCC1C2` (stereo in doubt; endo) [listing 2 of 2 here] returned an ID50 in experiment [1] of 0.003 mg/kg. This compound showed a 20% effect concentration (EC20) in experiment [2] of 0.017 µg/mL (≈ 0.0549 µM). In experiment [3], the 50% effect level (ED50) was put at a dose of 0.06 mg/kg.
`COc1cc(N)c(Cl)cc1C(=O)NC1CCN2CCOC1C2` (single isomer, unassigned; (+)) [listing 2 of 2 here] came in with an ID50 in experiment [1] of 0.018 mg/kg. Further, the 50% effective dose (ED50) in experiment [3] amounted to 0.1 mg/kg.
The compound `COc1cc(N)c(Cl)cc1C(=O)NC1CCN2CCOC1C2` (stereo in doubt) had an ID50 in experiment [1] of 0.019 mg/kg. Also, the ED50 in experiment [3] is 0.1 mg/kg.
The compound `COc1cc(N)c(Cl)cc1C(=O)NC1C2CC3CCN(C2)CC1C3` (stereo in doubt; exo) [listing 2 of 2 here] showed an ID50 in experiment [1] of 0.059 mg/kg.
In experiment [3], `COc1cc(N)c(Cl)cc1C(=O)NC1CCN2CCSC1C2` (configuration not stated) registered an ED50 of 0.5 mg/kg. The LAD in experiment [4] stood at 0.01 mg/kg.
Regarding `COc1cc(N)c(Cl)cc1C(=O)NC1CCN2CCCC1C2` (stereo in doubt; 5d), the ID50 in experiment [1] turned out to be 0.03 mg/kg. This compound yielded a concentration for an effect of 20% (EC20) in experiment [2] of 0.0004 µg/mL (≈ 0.00124 µM). Further, the ED50 in experiment [3] is 0.1 mg/kg.
